Reference: patent publication US20110178139A1, “Pyridoxamine for the Treatment of Diabetic Kidney Disease” (priority 2004, published 2011)

How the values were obtained:
[1] = tested on: diabetic nephropathy patients; test: Separate study: six months of escalating doses of pyridoxamine dihydrochloride in addition to standard of care; type: in vivo, human
Procedure: In a separate study, diabetic nephropathy patients received six months of treatment of escalating doses of pyridoxamine dihydrochloride (50 mg, 100 mg, and 250 mg), administered orally via capsules twice daily as follows:
50 mg bid for 2 weeks, then if tolerated:
10 mg bid for 2 weeks, then if tolerated:
The study drug was administered in addition to standard of care therapy. The patient population consisted of male and female patients between 18 and 70 years of age with diabetic nephropathy associated with type 1 or type 2 diabetes, serum creatinine of […], and macroalbuminuria confirmed with baseline urinary albumin excretion≧300 mg/24 his.
84 patients received at least one dose of the study drug (57 pyridoxamine dihydrochloride; 27 placebo.
Baseline characteristics of the patients included serum creatinine of 1.91 mg/dL and urinary albumin excretion of 957 mg/12 h in treatment, versus 1.95 mg/dL and 1224 mg/12 h in placebo groups.

[2] = tested on: patients with type 1 and type 2 DM and overt nephropathy; test: Randomized, double-blind, placebo-controlled, multicenter trial (PYR206) of PYR 50 mg b.i.d. for six months; type: in vivo, human
Procedure: A randomized, double-blind, placebo-controlled, multicenter trial which examined the safety profile of pyridoxamine dihydrochloride (PYR) in patients with type 1 and type 2 DM and overt nephropathy was conducted. 128 patients (48 type 1, 80 type 2) at 32 sites were randomized to receive either PYR 50 mg twice a day (b.i.d) or placebo for six months, 58 patients in each group completed the study. Groups were well matched at baseline for age, race, gender, blood pressure, hemoglobin AlC (HbAlC), and angiotensin converting enzyme inhibitor (ACEI)/angiotensin receptor blocker (ARB) use.
Baseline characteristics of the patients included serum creatinine=1.27 mg/dL and urinary albumin excretion=868 mg/12 h in treatment, versus 1.33 mg/dL and 1055 mg/12 h in placebo groups (differences not significant, NS).
In addition, the urinary levels of TGF beta in the subjects completing the PYR206 study (combined type 1 and type 2 patients) were tested. This growth factor is an important and accepted marker of renal disease, since it initiates or controls a cascade of cellular changes (from diabetes and other diseases) that lead to mesangial expansion and eventually fibrosis in the kidney. […] This is strong evidence of the action of PYR in retarding or halting the nephropathy due to the diabetes.

[3] = escalating doses 50, 100, 250 mg bid, six months, no significant difference vs placebo
[4] = PYR 50 mg b.i.d., six months, no significant difference vs placebo

Cc1ncc(CO)c(CN)c1O.Cl.Cl [PYR, pyridoxamine dihydrochloride]
serious adverse events ([1]; escalating doses 50, 100, 250 mg bid, six months, higher rate than placebo (3.7%)): 21.1% | study discontinuation due to AE's [1, 3]: 8.8% | treatment-related adverse events [1, 3]: 35.1% | rate of rise in serum creatinine ([1]; type 2 patients taking ACE-I or ARB with baseline serum creatinine ≧1.3 mg/dL (predefined subgroup), p<0.0001 vs placebo): 0.144 mg/dL/yr | serious adverse events [2, 4]: 11% | study discontinuation due to AE's [2, 4]: 6% | treatment-related adverse events [2, 4]: 26% | scored neurotoxicity testing ([2]; PYR 50 mg b.i.d., six months, vs placebo): No significant differences | mean rate of rise in serum creatinine ([2]; all patients, 50 mg b.i.d., six months, p=0.0065 by ANOVA vs placebo): 0.178 mg/dL/yr | rise in mean urinary albumin excretion rate ([2]; all patients, p=0.017, ANOVA vs placebo): 122 mg/12 h/yr | decrease in urinary TGF beta levels (pg TGF/mg Cr) ([2]; combined type 1 and type 2 patients completing the study, six months, preliminary analysis, placebo increased 43%): about 24% | rise in albuminuria ([2]; patients with baseline HbAlC over 7.275%, p=0.0282, ANOVA): reversed | rate of rise in serum creatinine ([2]; patients with baseline serum creatinine ≧1.3 mg/dL, p<0.0001 vs placebo): 0.17 mg/dL/yr | rate of rise in serum creatinine ([2]; type 2 patients taking ACE-I or ARB with baseline serum creatinine ≧1.3 mg/dL (predefined subgroup), p<0.0057 vs placebo): 0.138 mg/dL/yr | incidence of sensory system neurologic adverse events ([2]; vs placebo (Table 5)): significantly reduced
